Laboratory results reported in patent US20220289686A1, “COMPOSITIONS OF NRF2 INHIBITING AGENTS AND METHODS OF USE THEREOF” (Washington University, priority 2021, published 2022).
Read-outs that look alike come from different tables or passages of the source.

Tests used:
Format in all cases: cell-based
NRF2 protein [1] = test: Western blot analysis of NRF2 protein abundance and downstream targets in cell lines; conditions: H1299, 10 ng/ml FA, 24 hr
[2] = system: NRF2 activity in H1299-NQO1-YFP cells; test: NRF2 activity reporter IC50 in H1299-NQO1-YFP cells vs NRF2 pathway activators (IncuCyte, YFP/mCherry); conditions: for IC50: Table 3, H1299-NQO1-YFP cells
Procedure: Readings were taken every 2 hours for at least 24 hours. […] Readings were also taken every 2 hours for 96 hours in and IncuCyte S3.
(§1) YFP total intensity (correlating to NRF2 activity) was normalized to NLS-mCherry (cell number) total intensity to give a ratio (YFP/mCherry). Ratios at one time point at least 24 hours post compounds were added were used. These numbers were then plotted in Graphpad Prism to calculate IC50s. […] From three biological replicates, percent confluence was used for proliferation assays to calculate IC50s, calculations performed using Graphpad Prism.

NRF2 protein [3] = test: Western blot analysis of NRF2 protein abundance and downstream targets in cell lines; conditions: western blot; 24-48 hours; PYR 10 μM, analogs 1 μM (104 in HEK293T 10 μM), MTX and PEM 0.1 μM, CG 10 μM
Procedure: Western Blots: KYSE70, HEK293T cells were plated and 24 hours later treated with compounds (see figure legends for details). Either at 24 or 48 hours later, cells were scrapped in RIPA buffer (0.2% deoxycholate, 0.1% SDS, 1% NP40, 150 mM NaCl, 50 mM Tris pH 7.4, 2 mM EDTA) supplemented with protease and phosphatase inhibitors, cleared at 14000×g for 15 minutes at 4° C., and supernatants were quantified by BCA assay (Pierce, 23225). Protein samples (20 μg) were prepared with 1×LDS buffer with 100 mM DTT, ran on NuPAGE 4-12% Bis-tris gels, and transferred onto a […] nitrocellulose membrane (Thermo, 88018). All blots were blocked in 5% milk in TBST for 30 minutes. After incubation of the primary antibody overnight at 4° C. and washed three times with 1×TBST, blots were incubated with LI-COR secondary antibodies for 1-2 hours, washed in 1×TBST thrice, and then imaged via a LI-COR Odyssey instrument (Li-COR, Lincoln, Nebr.).

[4] = system: NRF2 mRNA and NRF2 target gene mRNA; test: RT-qPCR of NRF2 mRNA and NRF2 downstream targets in KYSE70 cells; conditions: 24 or 48 hours, PYR 10 μM, analogs 1 μM, MTX and PEM 0.1 μM
Procedure: (§2) qRT-PCR: Total RNA was extracted using PureLink RNA kit following the manufacturers protocol. Primers for qPCR were designed using the National Center for Biotechnology Information's (NCBI) Primer-BLAST platform. For primer sequences, see Table 2. RNA was quantified using a Nanodrop One (Thermo, Waltham, Mass.), and the reverse transcription reaction was performed using 2 μg of RNA with the iSCRIPT Clear kit with DNAse (Biorad, 170-8891). For the qRT-PCR, PowerUP SYBR Green (Thermo, A25741) was used, and data were analyzed on an AB QuantStudio 6 Flex Real Time PCR machine (Applied Biosystems, Foster City, Calif.). ΔCT values were normalized to housekeeping gene RPL13a and then normalized to DMSO for final ΔΔCT value.

KYSE70 cells = test: Proliferation IC50 (percent confluence, IncuCyte) in KYSE70 cells; conditions: Homo sapiens, KYSE-70, 96 h, read-out: proliferation IC50
Procedure: as §1, with “IncuCyte and IC50 calculations: […] […] Readings were taken every 2 hours for at least 24 hours. […] Readings were also taken every 2 hours for 96 hours in and IncuCyte S3. YFP total” for “YFP total”

AXIN2 and CK1γ1 mRNA = test: qRT-PCR of AXIN2 and CK1γ1 mRNA (not NRF2 target genes) in KYSE70 cells; conditions: KYSE70, 48 hours; 1 μM 115, 0.1 μM MTX, 0.1 μM PEM
Description: Single experiment shown. AXIN2 and CK1γ1 were done in same experiment, but separated for discussion. Error bars are SD and * represents p-value <0.05.
as §2

[5] = activator CDDO 100 nM, read-out: CDDO 100 nM IC50 μM ± SEM
[6] = activator SULF 2 μM, read-out: SULF 2 μM IC50 μM ± SEM
[7] = average over activators, read-out: Avg IC50
[8] = read-out: PRL295 5 μM IC50 μM ± SEM, activator PRL295 5 μM

| Structure (SMILES) | stabilization of NRF2 by FA alone (NRF2 protein [1]) | IC50 [2, 5] [µM] | IC50 [2, 6] [µM] | IC50 [2, 7] [µM] | IC50 [2, 8] [µM] | NRF2 protein abundance (NRF2 protein [3]) | NRF2 mRNA and NRF2 target gene mRNA [4] | IC50 (KYSE70 cells) [nM] | AXIN2 and CK1γ1 mRNA (AXIN2 and CK1γ1 mRNA) | suppression of NRF2 activity (in words) ([2]; IC50 experiments at the doses tested) |
| --- | --- | --- | --- | --- | --- | --- | --- | --- | --- | --- |
| Nc1nc(=O)c2c([nH]1)NCC(CNc1ccc(C(=O)N[C@@H](CCC(=O)O)C(=O)O)cc1)N2C=O (mixture of isomers) [FA, Folinic Acid] | no stabilization of NRF2 | – | – | – | – | – | – | – | – | – |
| CN(Cc1cnc2nc(N)nc(N)c2n1)c1ccc(C(=O)N[C@@H](CCC(=O)O)C(=O)O)cc1 [MTX, Methotrexate, reference compound] | – | 0.0008 | 0.0358 ± 0.0031 | 0.0202 | 0.024 ± 0.0024 | decreased | decreased | 12.4 | decreased AXIN2 and CK1γ1 mRNA | – |
| Nc1nc2[nH]cc(CCc3ccc(C(=O)N[C@@H](CCC(=O)O)C(=O)O)cc3)c2c(=O)[nH]1 [PEM, reference compound] | – | 0.334 ± 0.03 | 0.382 ± 0.0374 | 0.276 | 0.112 ± 0.0068 | did not | did not | – | decreased AXIN2 and CK1γ1 mRNA | only partial suppression of NRF2 activity |
